The source of these data is patent US9833466B2, “Treatment of leukemia with histone deacetylase inhibitors” (Acetylon Pharmaceuticals Inc., priority 2014, dated 2017).

The subject of one data set is Kasumi-1. The data set is described as follows: Kasumi-1 cell cycle by propidium iodide staining (sub-G1). The settings on record: 72 hours, increasing concentrations. Format: cell-based. The protocol:
HDAC inhibition causing AML cell death (apoptosis) was measured by staining the AML cells with propidium iodide after the cells were exposed to different concentrations of the HDAC inhibitors. Four distinct cell populations, G1, S, G2, and sub-G1, were separated and quantified based on their propidium iodide staining patterns. The sub-G1 cells are those dying or dead cells, and the percentage of this population was a reflection of the tested compound cytotoxicity.

For a further data set, the system named is MV4-11. The data set is described as follows: Cell cycle by flow cytometry (EdU, Far Red) in MV4-11. It counts as cell-based. As to conditions: single agent, 72 h. On the procedure:
The distribution of cells among G0/G1 phase, G2/M phase, S phase and subG1 phase was determined. […] The relative fraction of cells that were live, in early apoptosis, in late apoptosis, or dead was then determined.
FIG. 17. […] (A) Indicated AML cell lines were exposed to increasing concentrations of Compound J to confirm their sensitivity to HDAC1/2 inhibition. (B-D) MV4-11 cells were treated with indicated concentrations of compounds. (B) Surface levels of myeloid differentiation marker CD11b were determined by FACS at 72 h post-treatment. […] (C) Cell cycle was assessed by flow cytometry after incorporation of EdU and staining with Far Red at 72 h post-treatment. The distribution of cells among G0/G1 phase, G2/M phase, S phase and subG1 phase was determined. […] (D) Apoptosis was assessed by flow cytometry via measuring Annexin V binding and cellular permeability to propidium iodide at 96 h post-treatment. The relative fraction of cells that were live, in early apoptosis, in late apoptosis or dead was then determined.
On the technique in general: Flow cytometry measures light scatter and fluorescence of single cells or particles in a stream.

The test system of data set [1] is AML cell lines (Kasumi-3, HL-60, and THP-1). The data set is described as follows: AML cell viability assay (Cell Titer Glo), HDAC inhibitor combined with azacitidine. Format: cell-based. The settings on record: combination with azacitidine; 72 hours; synergistic only when CI<0.7. The protocol:
With the same amount of cultured AML cells in each well, serial dilutions of one compound were added into each row of the wells from left to right, and serial dilutions of the second compound were mixed into each column of these wells from top to bottom. Therefore, those AML cells on the testing plate were exposed to various combinations of the two compounds at different concentrations. The viable cells in each well were measured after 72 hours incubation at 37° C., and the percentage of unviable cells was calculated and normalized to the total cells. […] The CI values were plotted as a function of Fa, as shown in FIGS. 1A-D. In order to avoid any possible false positives due to experimental data variability, a combination was determined “synergistic” only when CI<0.7, as shown in the shaded area of each graph. […] The synergism is driven predominantly by HDAC1/2 inhibition.

In data set [2] the test system is HL-60, NB4, MV4-11, Kasumi-1, THP-1, and MOLM-13. The data set is described as follows: Single agent activity on viability in AML cell lines. As to conditions: 72 hours, six AML cell lines. It counts as cell-based. On the procedure:
FIGS. 3A-D show the single agent activity on viability in AML cell lines. Briefly, each of the following cell lines: HL-60, THP-1, MV-4-11, Kasumi-1, NB4, and MOLM-13 were exposed to increasing concentrations of either Compound B (FIG. 3A), Compound A (FIG. 3B), Compound E (FIG. 3C), or azacitidine (FIG. 3D) to determine their response to drug treatment. […] The panel of cell lines was also treated with azacitidine to measure their sensitivity.
FIGS. 8A-F show the single agent activity on viability in AML cell lines. […] Viability was calculated as a percentage of control (DMSO treated cells). Growth inhibition curves were generated using GraphPad Prism 6.
FIG. 17. […] (B-D) MV4-11 cells were treated with indicated concentrations of compounds. (B) Surface levels of myeloid differentiation marker CD11b were determined by FACS at 72 h post-treatment. […] (C) Cell cycle was assessed by flow cytometry after incorporation of EdU and staining with Far Red at 72 h post-treatment. The distribution of cells among G0/G1 phase, G2/M phase, S phase and subG1 phase was determined. […] (D) Apoptosis was assessed by flow cytometry via measuring Annexin V binding and cellular permeability to propidium iodide at 96 h post-treatment. The relative fraction of cells that were live, in early apoptosis, in late apoptosis or dead was then determined.

The subject of data set [3] is bone marrow samples derived from AML patients. The data set is described as follows: Primary AML sample colony formation assay. As to conditions: Homo sapiens, 336 h, read-out: median IC50, colony formation. It counts as cell-based. On the procedure: (A) 6 bone marrow samples derived from AML patients were cultured in methylcellulose-based medium and treated with increasing concentrations of Compound A, Compound J and azacitidine for 14 days when the colonies reach reasonable size. IC50 values for each drug are plotted. […] IC50 values were plotted for each patient sample.

Another data set concerns NB4. The data set is described as follows: Surface CD11b by FACS in NB4. As to conditions: combination with azacitidine vs single agent, 72 hours. It counts as cell-based. On the procedure: Briefly, the AML cell lines HL-60 (FIGS. 4A and 4D), Kasumi-1 (FIGS. 4B and 4E) and NB4 (FIGS. 4C and 4F) were treated with the indicated concentrations of compounds. In FIGS. 4A-C, surface levels of myeloid differentiation marker CD11b were determined by FACS at 72 hours post-treatment. […] In FIGS. 4D-F, apoptosis was assessed by flow cytometry by measuring Annexin V binding and cellular permeability to propidium iodide at 96 hours post-treatment. The relative fraction of cells that were alive, in early apoptosis, in late apoptosis, or dead was then determined.
FIGS. 7A-F show the combination of HDAC inhibitors and azacitidine in the NB4 cell line. Briefly, cells were treated with DMSO, Compound B, Compound A, or Compound E as single agent or in combination with azacitidine at the indicated concentrations. Surface levels of CD11b were determined 72 hours post-treatment (FIGS. 7A, 7C, 7E), and apoptosis was assessed 96 hours post-treatment (FIGS. 7B, 7D, 7F).

The conditions of data set [4]: Phase I trials; cited from earlier work.

As to `Nc1ccc(-c2cccs2)cc1NC(=O)c1ccc2c(c1)cc(C1CC1)n2CCN1CCOCC1` [Compound E, N-(2-amino-5-(thiophen-2-yl)phenyl)-2-cyclopropyl-1-(2-morpholinoethyl)-1H-indole-5-carboxamide], the “sub-G1 cells (dying or dead cells)” value in the data set on Kasumi-1 was “Increased amount of sub-G1 cells”. The cell cycle arrest entry with MV4-11 is on record as “induced cell cycle arrest as well as apoptosis”. In data set [1], the “synergy of cytotoxicity with azacitidine (CI vs Fa)” value is recorded as “the most synergy”. Also, the “viability IC50 relative to HDAC selective range” value in data set [2] is “within its HDAC1/2 selective range”.

For orientation: IC50 means the concentration that gives 50% inhibition. For the compound `O=C(CCCCCCNC(=O)c1cnc(N(c2ccccc2)c2ccccc2)nc1)NO` [Compound A, 2-(diphenylamino)-N-(7-(hydroxyamino)-7-oxoheptyl)pyrimidine-5-carboxamide], the IC50 in data set [3] came to 9.76 µM. In addition, the cell cycle arrest result in the data set with MV4-11 is given as “induced cell cycle arrest as well as apoptosis”. Besides, the “synergy of cytotoxicity with azacitidine (CI vs Fa)” value in data set [1] was “significant synergistic cell killing”. Further, the CD11b positive cells entry in the data set on NB4 is given as “synergistic increases of CD11b positive cells”. Besides, the “viability IC50 relative to HDAC selective range” value in data set [2] was “has some inhibitory effects on HDAC1/2 at their IC50 values”. In addition, the safety and tolerability entry in data set [4] is “improved safety and tolerability profile”.

As for `O=C(CCCCCCNC(=O)c1cnc(N(c2ccccc2)c2ccccc2Cl)nc1)NO` [Compound B, 2-((2-chlorophenyl)(phenyl)amino)-N-(7-(hydroxyamino)-7-oxoheptyl)pyrimidine-5-carboxamide], the “sub-G1 cells (dying or dead cells)” value with Kasumi-1 was “Increased amount of sub-G1 cells”. Moreover, the CD11b positive cells result in the data set on NB4 is given as “synergistic increases of CD11b positive cells”.
